Assay results taken from the supplement of paper PMC10307832.

What was measured:
Test in all cases: relative viability (nuclei count vs DMSO), 5 days (fraction); higher = more cells survive
Linifanib = compound: Cc1ccc(F)c(NC(=O)Nc2ccc(-c3cccc4[nH]nc(N)c34)cc2)c1 [Linifanib]
Procedure, shortened: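 MetaXpress counted nuclei in 4× images of lung cancer cell lines that had been fixed, permeabilised and Hoechst-stained in one step. Before that, cells in 1536-well plates were kept overnight at 37 °C, pinned with five √10-spaced library-drug doses on vehicle-anchored plates, and cultured 5 days without medium change. Viability takes treated-well nuclei over vehicle-well nuclei and uses the median across plates. Plates were accepted only at control CV below 25% and at least one doubling.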

Linifanib + Navitoclax = compound: Cc1ccc(F)c(NC(=O)Nc2ccc(-c3cccc4[nH]nc(N)c34)cc2)c1 [Linifanib] + CC1(C)CCC(c2ccc(Cl)cc2)=C(CN2CCN(c3ccc(C(=O)NS(=O)(=O)c4ccc(N[C@H](CCN5CCOCC5)CSc5ccccc5)c(S(=O)(=O)C(F)(F)F)c4)cc3)CC2)C1 [Navitoclax] (partner 0.5 µM)
Procedure, shortened: (§1)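 Five library-drug doses in √10 steps were combined with a fixed anchor-drug dose, or a single drug was given alone, by pin tool to lung cancer cell lines in 1536-well plates the day after seeding. Nuclei were stained and counted after 5 days. Relative viability is the nuclei count in treated wells over that in vehicle wells, taken as the median of duplicate plates.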

Linifanib + Pictilisib = compound: Cc1ccc(F)c(NC(=O)Nc2ccc(-c3cccc4[nH]nc(N)c34)cc2)c1 [Linifanib] + CS(=O)(=O)N1CCN(Cc2cc3nc(-c4cccc5[nH]ncc45)nc(N4CCOCC4)c3s2)CC1 [Pictilisib] (partner 1 µM)
Procedure, shortened: as §1

Linifanib + Linsitinib = compound: Cc1ccc(F)c(NC(=O)Nc2ccc(-c3cccc4[nH]nc(N)c34)cc2)c1 [Linifanib] + C[C@]1(O)C[C@@H](c2nc(-c3ccc4ccc(-c5ccccc5)nc4c3)c3c(N)nccn32)C1 [Linsitinib] (partner 1 µM)
Procedure, shortened: as §1

Linifanib + Alpelisib = compound: Cc1ccc(F)c(NC(=O)Nc2ccc(-c3cccc4[nH]nc(N)c34)cc2)c1 [Linifanib] + Cc1nc(NC(=O)N2CCC[C@H]2C(N)=O)sc1-c1ccnc(C(C)(C)C(F)(F)F)c1 [Alpelisib] (partner 2 µM)
Procedure, shortened: as §1

Linifanib + Vorinostat = compound: Cc1ccc(F)c(NC(=O)Nc2ccc(-c3cccc4[nH]nc(N)c34)cc2)c1 [Linifanib] + O=C(CCCCCCC(=O)Nc1ccccc1)NO [Vorinostat] (partner 1 µM)
Procedure, shortened: as §1

Row | Cell Line | relative viability (Linifanib; 0.03162 µM) | relative viability (Linifanib; 0.1 µM) | relative viability (Linifanib; 0.3162 µM) | relative viability (Linifanib + Navitoclax; first compound 0.03162 µM) | relative viability (Linifanib + Navitoclax; first compound 0.1 µM) | relative viability (Linifanib + Navitoclax; first compound 0.3162 µM) | relative viability (Linifanib + Pictilisib; first compound 0.03162 µM) | relative viability (Linifanib + Pictilisib; first compound 0.1 µM) | relative viability (Linifanib + Pictilisib; first compound 0.3162 µM) | relative viability (Linifanib + Linsitinib; first compound 0.03162 µM) | relative viability (Linifanib + Linsitinib; first compound 0.1 µM) | relative viability (Linifanib + Linsitinib; first compound 0.3162 µM) | relative viability (Linifanib + Alpelisib; first compound 0.03162 µM) | relative viability (Linifanib + Alpelisib; first compound 0.1 µM) | relative viability (Linifanib + Alpelisib; first compound 0.3162 µM) | relative viability (Linifanib + Vorinostat; first compound 0.03162 µM) | relative viability (Linifanib + Vorinostat; first compound 0.1 µM) | relative viability (Linifanib + Vorinostat; first compound 0.3162 µM)
1 | PC-14 | 0.999 | 1 | 0.904 | 0.975 | 0.91 | 0.947 | 0.617 | 0.823 | 0.682 | 1.01 | 1.07 | 0.922 | 0.907 | 0.958 | 0.88 | 0.784 | 0.83 | 0.768
2 | RERF-LC-KJ | 1.04 | 0.989 | 0.96 | 1.12 | 1.02 | 0.994 | 0.564 | 0.6 | 0.484 | 0.888 | 0.907 | 0.827 | 0.888 | 1.04 | 0.75 | 0.737 | 0.804 | 0.727
3 | SK-LU-1 | 1.07 | 1.11 | 1.01 | 0.783 | 0.893 | 0.791 | 0.529 | 0.602 | 0.542 | 0.932 | 1.02 | 0.981 | 0.926 | 0.918 | 1.05 | 0.74 | 0.749 | 0.828
4 | SK-MES-1 | 0.969 | 1.08 | 0.965 | 1.18 | 1.25 | 1.04 | 0.369 | 0.338 | 0.398 | 1.04 | 1.12 | 1.03 | 0.883 | 0.852 | 0.885 | 1.13 | 1.05 | 1.05
5 | SW 1573 | 0.98 | 1.08 | 0.963 | 1.03 | 1.28 | 0.897 | 0.43 | 0.517 | 0.417 | 0.853 | 0.845 | 0.743 | 0.609 | 0.914 | 0.657 | 0.909 | 0.93 | 0.594
6 | UMC-11 | 0.979 | 1.02 | 0.878 | 0.304 | 0.41 | 0.366 | 0.859 | 0.865 | 0.819 | 0.921 | 1.06 | 0.911 | 0.945 | 1.15 | 0.99 | 0.334 | 0.315 | 0.354
